In publication PMC9230201, “Sustained Consumption of a Decaffeinated Green Coffee Nutraceutical Has Limited Effects on Phenolic Metabolism and Bioavailability in Overweight/Obese Subjects” (Nutrients, 2022):
“And” between values parts separate entries of the source, which are not always exact repeats. Equal entries are not always repeated.

What was measured:
[1] = Plasma pharmacokinetics of phenolic metabolites after intake of the GCPE nutraceutical (LC-MS-QToF)
[2] = Urinary excretion of phenolic metabolites after intake of the GCPE nutraceutical; details: for Cumulative urinary excretion, Total 0–24 h / Urinary excretion: urine; for Cumulative urinary excretion, Total 0–24 h: mean ± SEM, n = 9
[3] = week 0, GCPE nutraceutical with 300 mg hydroxycinnamic acids, mean ± SEM, n = 9
[4] = week 0, first peak where biphasic
[5] = week 8, GCPE nutraceutical with 300 mg hydroxycinnamic acids, mean ± SEM, n = 9
[6] = week 8, first peak where biphasic

Cumulative urinary excretion, Total 0–24 h ([2]; week 0)	Cumulative urinary excretion, Total 0–24 h ([2]; week 8)	Amount excreted in urine, 0- 3 h ([2]; week 0, interval 0–3 h)	Amount excreted in urine, 3-6 h ([2]; week 0, interval 3–6 h)	Amount excreted in urine, 6-9 h ([2]; week 0, interval 6–9 h)	Amount excreted in urine, 9-11 h ([2]; week 0, interval 9–11 h)	Amount excreted in urine, 11-24 h ([2]; week 0, interval 11–24 h)	Amount excreted in urine, 0- 3 h ([2]; week 8, interval 0–3 h)	Amount excreted in urine, 3-6 h ([2]; week 8, interval 3–6 h)	Amount excreted in urine, 6-9 h ([2]; week 8, interval 6–9 h)	Amount excreted in urine, 9-11 h ([2]; week 8, interval 9–11 h)	Amount excreted in urine, 11-24 h ([2]; week 8, interval 11–24 h)	Compound	AUC0–24h ([1]; week 0)	Cmax [1, 3]	Tmax, second peak ([1]; week 0, biphasic profile)	Tmax (h) or Range [1, 4]	AUC0–24h ([1]; week 8)	Cmax [1, 5]	Tmax (h) or Range [1, 6]	Tmax, second peak ([1]; week 8, biphasic profile)	other results
3.4 ± 0.4 µmol	3.7 ± 0.5 µmol	0.5 ± 0.1 µmol	0.42 ± 0.07 µmol	0.7 ± 0.2 µmol	0.44 ± 0.09 µmol	1.3 ± 0.3 µmol	0.6 ± 0.1 µmol	0.37 ± 0.05 µmol	0.8 ± 0.1 µmol	0.8 ± 0.3 µmol	1.3 ± 0.2 µmol	COc1cc(C=CC(=O)O)ccc1OC1OC(C(=O)O)C(O)C(O)C1O (stereo not shown) [FA-4′-glucuronide, 3′-Methoxycinnamic acid-4′-glucuronide]	0.06 ± 0.01 µM/min	0.016 ± 0.009 µM	4.7 ± 0.3 h	1.2 ± 0.3 h	0.063 ± 0.02 µM/min	0.009 ± 0.002 µM	1.2 ± 0.3 h	–	–
–	–	–	–	–	–	–	–	–	–	–	–	O=C(O)C=Cc1ccc(OC2OC(C(=O)O)C(O)C(O)C2O)cc1 (stereo not shown) [CoA-4′-glucuronide, Cinnamic acid-4′-glucuronide]	0.72 ± 0.08 µM/min	0.039 ± 0.002 µM	7.0 ± 0.9 h	1.4 ± 0.3 h	0.71 ± 0.07 µM/min	0.038 ± 0.002 µM	2.1 ± 0.2 h	9 ± 2 h	–
32 µmol and 32 ± 5 µmol	33 µmol and 33 ± 5 µmol	5 ± 2 µmol	3.2 ± 0.9 µmol	7 ± 2 µmol	3.6 ± 0.7 µmol	13 ± 2 µmol	4 ± 2 µmol	3.4 ± 0.7 µmol	7 ± 1 µmol	7 ± 2 µmol	11 ± 2 µmol	COc1cc(C=CC(=O)O)ccc1OS(=O)(=O)O [FA-4′-sulfate, 3′-Methoxycinnamic acid-4′-sulfate]	0.11 ± 0.03 µM/min	0.017 ± 0.004 µM	6.8 ± 0.7 h	0.78 ± 0.09 h	0.13 ± 0.02 µM/min	0.017 ± 0.004 µM	0.56 ± 0.06 h	7.2 ± 0.6 h	Urinary excretion ([2]; week 0): 32 µmol/24 h; Urinary excretion ([2]; week 8): 33 µmol/24 h
19 ± 5 µmol	25 ± 5 µmol	1 ± 0.2 µmol	0.9 ± 0.3 µmol	4 ± 1 µmol	2.6 ± 0.9 µmol	3.9 ± 0.9 µmol	1 ± 0.3 µmol	1.2 ± 0.3 µmol	3 ± 1 µmol	3 ± 1 µmol	3 ± 1 µmol	COc1cc(/C=C/C(=O)NCC(=O)O)ccc1O [Feruloylglycine]	0.029 ± 0.007 µM/min	Traces ^b	–	7 ± 1 h	0.026 ± 0.004 µM/min	Traces ^b	8.4 ± 0.6 h	–	Cmax ([1]; weeks 0 and 8 not distinguished): trace levels; Cumulative urinary excretion, Total 0–24 h ([2]; week 0, listed as feruloylglycine): 19 µmol; Cumulative urinary excretion, Total 0–24 h ([2]; week 8, listed as feruloylglycine): 25 µmol; Amount excreted in urine, TOTAL ([2]; week 0, Table S5 total): 19 ± 5 µmol; Amount excreted in urine, 0 h ([2]; week 8, 0 h (before intake on sampling day)): 14 ± 4 µmol; Amount excreted in urine, TOTAL ([2]; week 8, Table S6 total): 25 ± 5 µmol
–	–	–	–	–	–	–	–	–	–	–	–	O=C(O)/C=C/c1ccc(OS(=O)(=O)O)cc1 [CoA-4′-sulfate, Cinnamic acid-4′-sulfate]	0.2 ± 0.2 µM/min	0.02 ± 0.02 µM	6 ± 3 h	1.7 ± 0.9 h	0.4 ± 0.2 µM/min	0.03 ± 0.01 µM	–	11 ± 3 h	–
–	–	–	–	–	–	–	–	–	–	–	–	O=C(O)Cc1ccc(O)cc1 [4′-Hydroxyphenylacetic acid]	2 ± 1 µM/min	2 ± 1 µM	–	2 ± 2 h	36 ± 23 µM/min	7 ± 3 µM	0.6 ± 0.1 h	–	–
4.4 ± 0.5 µmol	6 ± 1 µmol	0.9 ± 0.2 µmol	0.8 ± 0.2 µmol	1.1 ± 0.3 µmol	0.49 ± 0.09 µmol	1.1 ± 0.2 µmol	1.4 ± 0.3 µmol	0.9 ± 0.2 µmol	1.7 ± 0.3 µmol	1 ± 0.4 µmol	1.1 ± 0.3 µmol	COc1ccc(C=CC(=O)O)cc1O[C@@H]1O[C@H](C(=O)O)[C@@H](O)[C@H](O)[C@H]1O [iFA-3′-glucuronide, 4′-Methoxycinnamic acid-3′-glucuronide]	–	–	–	–	–	–	–	–	–

Compound	Cumulative urinary excretion, Total 0–24 h ([2]; week 0)	Cumulative urinary excretion, Total 0–24 h ([2]; week 8)	Amount excreted in urine, 0- 3 h ([2]; week 0, interval 0–3 h)	Amount excreted in urine, 3-6 h ([2]; week 0, interval 3–6 h)	Amount excreted in urine, 6-9 h ([2]; week 0, interval 6–9 h)	Amount excreted in urine, 9-11 h ([2]; week 0, interval 9–11 h)	Amount excreted in urine, 11-24 h ([2]; week 0, interval 11–24 h)	Amount excreted in urine, 0- 3 h ([2]; week 8, interval 0–3 h)	Amount excreted in urine, 3-6 h ([2]; week 8, interval 3–6 h)	Amount excreted in urine, 6-9 h ([2]; week 8, interval 6–9 h)	Amount excreted in urine, 9-11 h ([2]; week 8, interval 9–11 h)	Amount excreted in urine, 11-24 h ([2]; week 8, interval 11–24 h)	AUC0–24h ([1]; week 0)	Cmax [1, 3]	Tmax, second peak ([1]; week 0, biphasic profile)	Tmax (h) or Range [1, 4]	AUC0–24h ([1]; week 8)	Cmax [1, 5]	Tmax (h) or Range [1, 6]	Tmax, second peak ([1]; week 8, biphasic profile)	other results
COc1cc(CCC(=O)O)ccc1O[C@@H]1O[C@H](C(=O)O)[C@@H](O)[C@H](O)[C@H]1O [DHFA-4′-glucuronide, 3-(3′-Methoxyphenyl)propanoic acid-4′-glucuronide]	5 ± 1 µmol	7 ± 1 µmol	0.15 ± 0.05 µmol	0.16 ± 0.05 µmol	1 ± 0.4 µmol	0.8 ± 0.1 µmol	1.2 ± 0.2 µmol	0.21 ± 0.06 µmol	0.34 ± 0.09 µmol	1 ± 0.2 µmol	0.8 ± 0.2 µmol	1 ± 0.3 µmol	1.1 ± 0.3 µM/min	0.13 ± 0.03 µM	–	8.7 ± 0.6 h	0.8 ± 0.1 µM/min	0.12 ± 0.02 µM	8.7 ± 0.6 h	–	Urinary excretion ([2]; week 0): 5 µmol/24 h; Urinary excretion ([2]; week 8): 7 µmol/24 h
COc1ccc(CCC(=O)O)cc1O[C@@H]1O[C@H](C(=O)O)[C@@H](O)[C@H](O)[C@H]1O [DHiFA-3′-glucuronide, 3-(4′-Methoxyphenyl)propanoic acid-3′-glucuronide]	2.9 ± 0.5 µmol	3.1 ± 0.7 µmol	0.12 ± 0.04 µmol	0.16 ± 0.06 µmol	1.1 ± 0.4 µmol	0.7 ± 0.2 µmol	0.8 ± 0.2 µmol	0.3 ± 0.1 µmol	0.28 ± 0.07 µmol	1.1 ± 0.2 µmol	0.8 ± 0.4 µmol	0.6 ± 0.3 µmol	0.6 ± 0.4 µM/min	0.06 ± 0.02 µM	–	9.0 ± 0.6 h	0.7 ± 0.4 µM/min	0.07 ± 0.03 µM	8.1 ± 0.8 h	–	–
COc1ccc(CCC(=O)O)cc1OS(=O)(=O)O [DHiFA-3′-sulfate, 3-(4′-Methoxyphenyl)propanoic acid-3′-sulfate]	3 ± 1 µmol	2.6 ± 0.8 µmol	0.18 ± 0.06 µmol	0.1 ± 0.04 µmol	0.4 ± 0.1 µmol	0.2 ± 0.1 µmol	1.9 ± 0.8 µmol	0.14 ± 0.04 µmol	0.09 ± 0.03 µmol	0.24 ± 0.09 µmol	0.11 ± 0.03 µmol	2 ± 0.7 µmol	0.3 ± 0.1 µM/min	0.04 ± 0.01 µM	–	7 ± 1 h	0.8 ± 0.5 µM/min	0.11 ± 0.06 µM	11.6 ± 3.2 h	–	–
